These results are taken from US20120277306A1, “COMPOSITION CONTAINING METAL-ACIDIC AMINO ACID CHELATE ACCELERATING ABSORPTION OF METAL” (priority 2006, published 2012).

A short description of series [1]: Plasma zinc concentration over time after administration of zinc samples. The class given is in vivo, Sprague-Dawley rat. The following applies: zinc 40 mg/kg; for plasma zinc concentration over time: blood at 0.5, 1, 2, 4, 8 hours. On the procedure: These experimental animals were randomly assigned into a zinc sulfate-administered group, a zinc arginine-administered group and a zinc-aspartate chelate-administered group. After animals were fasted for 12 hours, each zinc sample was administered to rats, such that a zinc concentration in the sample is 40 mg/kg. After administration of the samples was complete, blood was collected at a time point of 0.5, 1, 2, 4, and 8 hours, respectively, and treated with heparin. Then, blood plasma was stored in a refrigerator and used for analysis of zinc concentrations. On the other hand, in order to examine distribution of zinc in the tissue, each zinc sample was administered to rats. After 8 hours, animals were sacrificed to remove organs. Zinc concentrations in the blood plasma and tissues were determined by fluorometry using Zinquin.

In series [2] the test system is prostate cancer cell line (R3327 AT-3.1). Briefly: Prostate cancer model, growth of cancer cells injected into the prostate. The class given is in vivo, COP rat. The method, then: 10-week-old COP male rats (Japan SLC, Shizuoka, Japan) were housed and allowed to acclimate to the new environment for seven days prior to the experiment, in a breeding room maintained at a temperature of 22±2° C., humidity of 55±5%, and a 12-h light/dark (L/D) cycle (light from 8:00 a.m. to 8:00 p.m.).
5×10^4 cells/head of the prostate cancer cell line (R3327 AT-3.1) were injected into the prostate of animals and growth of cancer cells was measured.

In series [3] the test system is prostatitis-induced rats (Escherichia coli ATCC 25922). Briefly: White rat model of chronic bacterial prostatitis, H&E histology of prostate.
Series [4] relates to patients with chronic prostatitis. Briefly: Clinical trial of zinc-aspartate chelate in chronic prostatitis patients (NIH-CPSI). Format: in vivo, human. The method, then: 34 patients with a medical history of more than 5 years of chronic prostatitis were administered with a zinc-aspartate chelate at a dose of 50 mg/day for 8 weeks. Clinical trials were conducted at the Department of Urology, College of Medicine, Korea University (Seoul, Korea). Prostatitis classification and symptom relief were analyzed according to National Institutes of Health Chronic Prostatitis Symptom Index (NIH-CPSI, proposed by NIH in 1995). As clinical effects by a conventional therapy, the data of the clinical study of Sungkyunkwan University School of Medicine (Seoul, Korea), published in the Korean Journal of Urology (2001), were cited.
Tables 3 and 4 below respectively show the results for chronic prostatitis patients with administration of an antibiotic and an anti-inflammatory drug as conventional therapeutic agents and with administration of the zinc-aspartate chelate, in conjunction with the results for the control group.

The subject of a further series is ZnT-2. Briefly: Expression of zinc transporter protein mRNA in prostatic tissue (RT-PCR). The settings on record: compared to before oral administration of zinc. The class given is in vivo. The method, then: In order to examine effects of zinc-aspartate complex on the expression of ZnT-2 and ZnT-4, known as zinc transporter proteins, experiments were carried out according to the following procedure.
Using Trizol Reagent (Invitrogen, USA), total RNA was extracted from 0.1 g of prostatic tissue. Using M-MLV reverse transcriptase (Invitrogen, USA), cDNA was synthesized from 5 μg of the extracted total RNA. 20 pmol of a primer was added to 3 μl of cDNA to make a volume of 20 μl and PCR was carried out as follows: initial denaturation at 95° C. for 5 min, followed by 26 cycles of denaturation at 94° C. for 1 min, annealing at an annealing temperature corresponding to conditions of each primer for 1 min and extension at 72° C. for 1 min, and final extension at 72° C. for 10 min.
PCR products were subjected to electrophoresis on 1.5% agarose gel containing EtBr, followed by confirmation of products under UV irradiation.
Effects of the zinc-aspartate complex, zinc sulfate and zinc arginine on the expression of mRNAs for ZnT-2, ZnT-4 and G3PDH were investigated.

Series [5] can be described thus: Distribution of zinc in tissues (prostate, testis) after administration of zinc samples. The class given is in vivo, Sprague-Dawley rat.
Where [6] appears, read: 15 mg/kg/day oral, 30 days, H&E stained prostate sections.
[7] abbreviates: 4 and 8 hours after administration.
Setting [8] is: 8 hours after administration, zinc 40 mg/kg, p<0.001.

Consider `O=S(=O)([O-])[O-].[Zn+2]` [zinc sulfate], for which, in series [1], the “time point of maximum blood zinc level after administration” value was determined as 2 h and the “plasma zinc concentration over time” value is on record as “time-dependent increase”.

On to `N=C(N)NCCC[C@H](N)C(=O)O.[Zn]` [zinc arginine], for which, in series [1], the “plasma zinc concentration compared to zinc sulfate-administered group” value is reported as “significant increase” and the “plasma zinc concentration over time” value was “time-dependent increase”.

As for zinc-aspartate chelate, the “weight of tumor mass compared to the control group” value in series [2] (10 mg/kg oral daily) is given as “significant weight reduction of tumor mass”. In series [2] (10 mg/kg oral daily vs DoceTaxel 10 mg/kg once a week I.P), the “weight of tumor mass compared to the Taxel group” value is on record as “much lower weight of tumor mass”. Further, in series [3] (setting [6]), the “fibrosis in the interstitium” value is “substantially no progress of fibrosis”; the “infiltration of inflammatory cells into and around glandular tissues” value is “no infiltration of inflammatory cells”. Further, in series [3] (15 mg/kg/day oral, 30 days, compared with normal group), the prostate tissue morphology result is on record as “normal tissue morphology comparable to that of the normal group”. Moreover, the anti-inflammatory effects entry in series [3] (E. coli inoculated prostate, oral administration, stained prostate tissues) was “excellent anti-inflammatory effects”. In series [1], the “plasma zinc concentration compared to zinc sulfate-administered group” value was “significant increase”, the “time point of maximum blood zinc level after administration” value turned out to be 2 h and the “plasma zinc concentration over time” value was “time-dependent increase”. In addition, in series [4] (50 mg/day for 8 weeks, 34 patients), the side effects entry was “no reports showing noticeable side effects”. Moreover, in series [4] (8 weeks, oral administration, 50 mg/day, P 0.01), the “NIH-CPSI Dysuria, after treatment” value came out at 4.02. Besides, the “NIH-CPSI Pain, after treatment” value in series [4] (8 weeks, oral administration, 50 mg/day, P 0.036) was determined as 6.82. The “NIH-CPSI Quality of life, after treatment” value in series [4] (8 weeks, oral administration, 50 mg/day, P 0.04) was determined as 2.61. In series [4] (baseline, n = 34), the “NIH-CPSI Dysuria, before treatment” value was found to be 5.53; the “NIH-CPSI Pain, before treatment” value was determined as 8.412; the “NIH-CPSI Quality of life, before treatment” value came out at 3.53. For the same compound, the “therapeutic effects compared with conventional drug therapy and physical therapy” value in series [4] (chronic prostatitis patients, Tables 3 and 4) is recorded as “almost the similar level of therapeutic effects”. For the same compound, the “expression level of ZnT-2 mRNA” value with ZnT-2 is “highest increase”. Further, in series [5] (setting [7]), the “intraprostatic zinc level compared to zinc sulfate- and zinc arginine-administered groups” value is “significantly high zinc concentration”; the “intratesticular zinc level compared to zinc sulfate- and zinc arginine-administered groups” value is listed as “significantly high zinc concentration”. In series [5] (setting [8]), the “zinc concentration in testis” value is “significantly high zinc concentration” and the “zinc concentration in the prostatic tissue” value is given as “significantly high zinc concentration”.
